{"source": "paper PMC11769294", "about": "“(E)-1-(3-(3-Hydroxy-4-Methoxyphenyl)-1-(3,4,5-Trimethoxyphenyl)allyl)-1H-1,2,4-Triazole and Related Compounds: Their Synthesis and Biological Evaluation as Novel Antimitotic Agents Targeting Breast Cancer” (Pharmaceuticals, 2025)", "key": {"[1]": {"test_system": "MCF-7 breast cancer cells", "assay": "alamarBlue cell viability assay", "format": "cell-based", "conditions": "Homo sapiens", "description": "Figure 5 Preliminary cell viability data for Series 1: (A) compounds 22a–22g and chalcone 20b and Series 2: (B) compounds 23a–e and chalcone 20b in MCF-7 breast cancer cells. Cell proliferation of MCF-7 cells was determined with an alamarBlue assay (seeding density 2.5 × 10^4 cells/mL per well for 96-well plates). Compound concentrations of either 1 or 0.1 μM for 72 h were used to treat the cells (in triplicate) with control wells containing vehicle ethanol (1% v/v). The mean value ± SEM for three independent experiments is shown. The positive controls used are CA-4 and phenstatin (1.0 μM and 0.1 μM). Statistical analysis was performed using One-way ANOVA with the Sidak multiple comparison test (***, p < 0.001).\nHL-60 cells were suspension cells and the seeding density for the viability assay was 25,000 cells/mL. MCF-7 cells (adherent) were cultured in Minimum Essential Media (MEM) with GlutaMAX™-I, supplemented with 1% (v/v) non-essential amino acids, 10% (v/v) fetal bovine serum (FBS), purchased from BD Biosciences (Edmund Halley Road, Oxford, UK), and 1% (v/v) penicillin/streptomycin 5000 U/mL. The MCF-7 cells used in the screening of the compounds during these experiments were mycoplasma-free. The seeding density of MCF-7 in the viability assay was 25,000 cells/mL and 50,000 cells/mL in the FACS assay. Normal breast cells (MCF-10A) (adherent) were cultured in Dulbecco’s Modified Eagle Medium: Nutrient Mixture F-12 (DMEM/F12; Gibco) supplemented with 5% horse serum (Invitrogen, Waltham, MA, USA), 20 ng/mL epidermal growth factor (Merck Millipore, Burlington, MA, USA), 0.5 μg/mL hydrocortisone (Sigma, Kanagawa, Japan), 100 ng/mL cholera toxin (Sigma), 10 μg/mL insulin (Sigma), and penicillin/streptomycin 5000 U/mL (1%) (Gibco, Waltham, MA, USA). […] MDA-MB-231 cells were cultured in Dulbecco’s Modified Eagle Medium, which was supplemented with 10% (v/v) fetal bovine serum (FBS) and 1% (v/v) penicillin/streptomycin 5000 U/mL. When not in use, all cells were kept in liquid nitrogen and frozen in a freezing media made of 90% FBS and 10% DMSO. All cells were grown in an atmosphere of 5% CO2/95% air in T75 culture flasks. The media was changed every 2–3 days and media was always prewarmed to 37 °C. All were sub-cultured every 3–4 days by trypsinization using TrypLE™ Express enzyme when confluence was reached to allow growth, prevent excessive cell death, and minimize the risk of infections derived by over-confluence. For the cell viability assay, the number of cells per milliliter was 25,000 cells/mL while the FACS assay utilized 50,000 cells/mL. Cells were maintained at 37 °C in 5% CO2 in a humidified incubator.\nThe biochemical assays were performed in triplicate and on at least three independent occasions to facilitate the determination of mean values. For the viability assay, cells were grown until 80% confluent. Adherent cells such as MCF-7, MDA-MB-231, and MCF-10A were trypsinized to detach them from the flask, counted as previously described, and seeded in 96 well plates with a seeding density of 25,000 cells /mL (200 µL of suspension in each well so that the final number of cells per well was 5000) and 1 × 10^4 cells/well seeding density for suspension HL-60 cells. Adherent cells were incubated for 24 h after being seeded in the 96 well plate and treated on the following day, while suspension cells were treated on the same day of the seeding. In both cases, the incubation time after the treatment with the drug was 72 h. After 68 h incubation, the AlamarBlue was added (20 µL in each well) and the incubation time was completed. After 72 h, the change in color was measured by spectrofluorimetry at an excitation wavelength of 544 nm and emission wavelength of 590 nm. AlamarBlue is a cell viability indicator containing a compound called resazurin. AlamarBlue is water soluble, stable in culture media, non-toxic, and is permeable through the cell membrane. […]"}, "[2]": {"test_system": "tubulin in MCF-7 breast cancer cells", "assay": "Immunofluorescence confocal microscopy of microtubules", "format": "cell-based, human", "conditions": "16 h, 22b 10 μM, paclitaxel and phenstatin 1 μM", "description": "Briefly, the MCF-7 cells were seeded at a density of 1 × 10^5 cells/mL on eight chamber glass slides (BD Biosciences). […] The cells were then washed in PBS, fixed for 20 min with 4% paraformaldehyde in PBS, and permeabilized in 0.5% Triton X-100. […] Images of the cells were obtained using Leica SP8 confocal microscopy (Wetzlar, Germany) with Leica application suite X software (Wetzlar, Germany). Experiments were performed on three independent occasions.\nThe micrograph images were obtained with Leica SP8 confocal microscopy utilizing Leica application suite X software. Representative confocal images of three separate experiments are shown. The scale bar indicates 25 μm."}, "[3]": {"test_system": "K562 human chronic myelogenous leukemia cell line", "design": "method as in PMID 19837593", "conditions": "cited from earlier work"}, "[4]": {"test_system": "MDA-MB-231 breast cancer cells", "conditions": "reported values; cited from earlier work"}, "[5]": {"test_system": "MCF-7 breast cancer cells", "conditions": "cited from earlier work"}, "HL-60 cells": {"test_system": "HL-60 cells", "conditions": "reported values; cited from earlier work"}, "[6]": {"test_system": "MCF-7 breast cancer cells", "design": "method as in PMID 33671674", "conditions": "cited from earlier work"}, "[7]": {"test_system": "purified bovine brain tubulin", "design": "method as in PMID 33671674", "conditions": "10 μM; cited from earlier work"}, "[8]": {"test_system": "MDA-MB-231 breast cancer cells", "design": "method as in PMID 33671674", "conditions": "cited from earlier work"}, "MCF-7 cells": {"test_system": "MCF-7 cells", "design": "method as in PMID 33671674", "conditions": "1 μM, cited from earlier work"}, "[9]": {"conditions": "MCF7, MCF-7, 1 μM, 72 h, read-out: viable cells"}}, "note": "Like-named read-outs stand apart in the source and are kept apart here."}
{"smiles": "COc1ccc(C2CC(=O)c3cc(OC)c(OC)c(OC)c32)cc1O", "note": "(stereo not shown) [Compound 24a, 3-(3-Hydroxy-4-methoxyphenyl)-4,5,6-trimethoxy-2,3-dihydro-1H-inden-1-one, reference compound]", "values": [{"measurement": "viability at 0.1 µM", "setting": "[1]; MCF7, MCF-7, 0.1 μM, 72 h, read-out: viable cells", "result": 70, "unit": "%"}, {"measurement": "viability at 1 µM", "setting": "[1]; [9]", "result": 35, "unit": "%"}]}
{"smiles": "COc1ccc(/C=C/C(c2cc(OC)c(OC)c(OC)c2)n2cncn2)cc1OC", "note": "(stereo not shown) [Compound 22d, (E)-1-(3-(3,4-Dimethoxyphenyl)-1-(3,4,5-trimethoxyphenyl)allyl)-1H-1,2,4-triazole]", "values": [{"measurement": "viability at 1 µM", "setting": "[1]; [9]", "result": 74, "unit": "%"}]}
{"smiles": "CC(=O)O[C@H]1C(=O)[C@@]2(C)[C@H]([C@H](OC(=O)c3ccccc3)[C@]3(O)C[C@H](OC(=O)[C@H](O)[C@@H](NC(=O)c4ccccc4)c4ccccc4)C(C)=C1C3(C)C)[C@]1(OC(C)=O)CO[C@@H]1C[C@@H]2O", "note": "[paclitaxel]", "values": [{"measurement": "effect on microtubule network", "setting": "[2]", "result": "hyperpolymerization of tubulin"}]}
{"smiles": "COc1ccc(/C=C(\\C)C(=O)c2cc(OC)c(OC)c(OC)c2)cc1O", "note": "[Compound 16a]", "values": [{"measurement": "IC50", "setting": "[3]", "result": 0.21, "unit": "nM"}]}
{"smiles": "COc1cc(/C=C/C(c2cc(OC)c(OC)c(OC)c2)n2cncn2)cc(OC)c1OC", "note": "(stereo not shown) [Compound 22c, (E)-1-(1,3-Bis(3,4,5-trimethoxyphenyl)allyl)-1H-1,2,4-triazole]", "values": [{"measurement": "viability at 1 µM", "setting": "[1]; [9]", "result": 70, "unit": "%"}]}
{"smiles": "COc1ccc(/C=C\\c2cc(OC)c(OC)c(OC)c2)cc1O", "note": "[CA-4, combretastatin CA-4]", "values": [{"measurement": "IC50", "setting": "[4]", "result": 43, "unit": "nM"}, {"measurement": "viability at 1 µM", "setting": "[1]; [9]", "result": 24, "unit": "%"}, {"measurement": "IC50", "setting": "[5]", "result": 4, "unit": "nM"}, {"measurement": "IC50", "setting": "[5]; reported values", "result": "3.9 ± 0.32", "unit": "nM"}, {"measurement": "IC50", "setting": "HL-60 cells", "result": "1.9 ± 0.5", "unit": "nM"}]}
{"smiles": "C(=C\\C(c1ccncc1)n1ccnc1)/c1c2ccccc2cc2ccccc12", "note": "(stereo not shown) [Compound 33b, (E)-4-(3-(Anthracen-9-yl)-1-(1H-imidazol-1-yl)allyl)pyridine]", "values": [{"measurement": "viability at 1 µM", "setting": "[1]; [9]", "result": 92, "unit": "%"}]}
{"smiles": "COc1ccc(/C=C/C(=O)c2cc(OC)c(OC)c(OC)c2)cc1O", "note": "[Compound 20b, (E)-3-(3-hydroxy-4-methoxyphenyl)-1-(3,4,5-trimethoxyphenyl)prop-2-en-1-one, reference compound]", "values": [{"measurement": "IC50", "setting": "[1]; MCF7, MCF-7, 72 h", "result": "67 ± 17", "unit": "nM"}]}
{"smiles": "COc1ccc(C(=O)c2cc(OC)c(OC)c(OC)c2)cc1O", "note": "[phenstatin]", "values": [{"measurement": "viability at 1 µM", "setting": "[1]; MCF7, 72 h, read-out: viable cells", "result": 30, "unit": "%"}, {"measurement": "IC50", "setting": "[5]", "result": 34, "unit": "nM"}, {"measurement": "total apoptosis", "setting": "[6]; 0.1 μM", "result": 36.1, "unit": "%"}, {"measurement": "total apoptosis", "setting": "[6]; 0.5 μM", "result": 46, "unit": "%"}, {"measurement": "reduction in the polymer mass vs vehicle", "setting": "[7]", "result": 10, "unit": "fold"}, {"measurement": "effect on microtubule network", "setting": "[2]", "result": "depolymerization of tubulin"}, {"measurement": "total apoptosis", "setting": "[8]; 0.1 μM", "result": 16.6, "unit": "%"}, {"measurement": "total apoptosis", "setting": "[8]; 0.5 μM", "result": 17.9, "unit": "%"}, {"measurement": "cells in G2/M phase", "setting": "MCF-7 cells; 24 h", "result": 65, "unit": "%"}, {"measurement": "cells in G2/M phase", "setting": "MCF-7 cells; 48 h", "result": 57, "unit": "%"}, {"measurement": "cells in G2/M phase", "setting": "MCF-7 cells; 72 h", "result": 51, "unit": "%"}, {"measurement": "cells in apoptosis (sub-G1)", "setting": "MCF-7 cells; 72 h", "result": 18, "unit": "%"}]}
